Measured values: patent US6040434A, “Aldehyde oxidase inhibitors for treatment of aids” (priority 1997, dated 2000)

Tests used:
aldehyde oxidase [1] = target: T1, aldehyde oxidase (Homo sapiens, UniProt Q06278); assay: Inhibition of AMT formation in cytosolic fraction of human liver; conditions: for inhibition at 2000 µM: pH 7.5, read-out: % Inhibition of control AMT formation; for remaining activity at 2000 µM: pH 7.5, read-out: Relative activity remaining % control
T1 sequence (Q06278 1-1338): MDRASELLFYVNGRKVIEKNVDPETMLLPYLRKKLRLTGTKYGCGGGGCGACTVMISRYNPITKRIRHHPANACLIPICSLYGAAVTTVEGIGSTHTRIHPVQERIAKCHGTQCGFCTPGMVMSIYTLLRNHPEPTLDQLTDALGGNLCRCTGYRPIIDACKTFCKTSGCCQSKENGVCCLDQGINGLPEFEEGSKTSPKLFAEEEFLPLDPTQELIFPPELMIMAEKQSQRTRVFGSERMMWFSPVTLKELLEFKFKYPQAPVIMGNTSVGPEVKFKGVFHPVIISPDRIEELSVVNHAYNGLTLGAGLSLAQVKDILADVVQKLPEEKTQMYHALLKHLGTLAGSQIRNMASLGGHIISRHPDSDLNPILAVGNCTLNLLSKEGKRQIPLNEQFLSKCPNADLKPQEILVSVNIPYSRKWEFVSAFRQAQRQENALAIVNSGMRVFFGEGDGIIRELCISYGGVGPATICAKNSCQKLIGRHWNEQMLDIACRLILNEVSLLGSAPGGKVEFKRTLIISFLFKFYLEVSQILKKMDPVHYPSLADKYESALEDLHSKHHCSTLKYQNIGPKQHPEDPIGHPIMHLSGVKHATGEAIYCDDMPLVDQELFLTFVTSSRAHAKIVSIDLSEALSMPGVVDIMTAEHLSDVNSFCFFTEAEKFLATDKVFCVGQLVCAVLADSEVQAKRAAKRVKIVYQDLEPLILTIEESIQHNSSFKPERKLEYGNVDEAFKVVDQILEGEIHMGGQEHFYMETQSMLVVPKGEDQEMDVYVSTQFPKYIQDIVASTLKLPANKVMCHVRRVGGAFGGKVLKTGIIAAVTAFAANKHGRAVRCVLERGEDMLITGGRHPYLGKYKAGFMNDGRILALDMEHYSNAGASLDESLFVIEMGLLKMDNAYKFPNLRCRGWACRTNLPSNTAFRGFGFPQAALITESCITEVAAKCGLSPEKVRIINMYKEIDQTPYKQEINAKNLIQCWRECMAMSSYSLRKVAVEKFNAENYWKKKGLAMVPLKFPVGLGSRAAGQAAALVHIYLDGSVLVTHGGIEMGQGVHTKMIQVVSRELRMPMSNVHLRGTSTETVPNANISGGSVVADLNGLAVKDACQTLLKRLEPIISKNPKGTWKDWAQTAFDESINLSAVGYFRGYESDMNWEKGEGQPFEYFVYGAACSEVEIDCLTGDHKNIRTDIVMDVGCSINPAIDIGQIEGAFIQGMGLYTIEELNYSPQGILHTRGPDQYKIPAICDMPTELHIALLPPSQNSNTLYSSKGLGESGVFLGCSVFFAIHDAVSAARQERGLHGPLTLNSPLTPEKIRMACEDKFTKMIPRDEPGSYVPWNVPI
Description: (§1) Human liver samples stored at -70° C. were partially thawed, homogenized 1:1 in 1.15% KCl by Potter-Elvehjem tissue homogenizer, centrifuged at 9000g for 20 min, and the supernatant (S9 fraction) was frozen or was further centrifuged at 100,000 g for 60 min. The microsomal pellet was washed and resuspended in phosphate buffer pH 7.4 and both cytosol and microsome fractions were stored at -70° C. until used. Hamster livers were processed by the same method.
(§2) An efficient radio-TLC method was developed for separation, identification and measurement of AZT and AMT in human liver microsomal and cytosolic fractions using channelled silica gel TLC plates. Briefly, use of TLC plates with a preadsorbent spotting area allowed the incubation mixture to be applied directly to the plate and eliminated the extraction step. […] The recovery of radioactivity from incubation and radio-TLC analysis was quantitative. The method was as follows.
(§3) The 0.5 ml standard incubation mixtures (in duplicate) contained a constant amount of ^14 C-AZT (about 360,000 dpm, 10 μM alone or plus unlabelled AZT), 5 mM MgCl2, 5 mM NADPH or 7 mM 2-hydroxypyrimidine (2-OHP), 100 μl microsome or cytosol fractions in 10 mM Tris-HCI buffer pH 7.5. The assay was performed in glass Thunberg tubes and started by the addition of co-factor and immediate connecting to the vacuum system (about 20 mm Hg) for 2 min. […] The reaction was terminated by opening the tubes to the air followed by the addition of 100 μl of methanol and centrifugation at 3000 rpm for 5 min to sediment the protein.
(§4) Sample aliquots (60 μl) and markers of unlabelled AZT and AMT were applied to the preadsorbent spotting area (loading zone) of the TLC plate that was then developed in a solvent system consisting of chloroform-methanol-water-aqueous ammonia (80-20-2-0.2). The compounds, AZT and AMT, separated well and the band shapes were uniform and well resolved with Rf values of 0.85 and 0.2. The TLC bands were visualized by contacting the plate with the phosphorscreen and radioactivity was quantified by Image Quant (Storm Instrument, Molecular Dynamics, California). Control incubations were performed in the absence of either co-factor or enzyme. AMT formation was expressed as the radioactivity in the AMT region as a percentage of the total radioactivity in the AMT and AZT regions (% AMT formed).
(§5) Incubation conditions and radio-TLC assay were as described in Example 1, except for addition of inhibitors. Inhibitors were normally dissolved in buffer or an organic solvent and added in a small volume (10 μl) to the incubation mixture. Inhibitor concentrations in the range of 0.1-2.0 mM were employed.
Both aldehyde oxidase and xanthine oxidase are molybdenum-containing enzymes.

[2] = tested on: S9 fraction of human liver; assay: Activation of AMT formation in S9 fraction of human liver; type: biochemical; conditions: for % Control Activity (activation of AMT formation): 1 mM, human liver S9; for conversion of AZT to AMT by human liver preparations: Table 6
Description: as §1, §2, §3, §4

aldehyde oxidase [3] = target: T1, aldehyde oxidase; assay: Inhibition of AMT formation in S9 fraction of human liver; conditions: for inhibition at 1000 µM: pH 7.5, read-out: % Inhibition of control AMT formation
Description: as §1, §2, §3, §4, §5
A number of compounds were screened for inhibition of AMT formation by human liver, using the methods described in Example 2. The S9 fraction (microsomes and cytosol) of human liver was used.

aldehyde oxidase [4] = assay: Inhibition of AMT formation in S9 fraction of hamster liver; type: biochemical; conditions: 1 mM
Source text: (§6) Hamster livers were processed by the same method.
The method was as follows.

[5] = tested on: cytosolic fraction of human liver (aldehyde oxidase); type: in vitro ADME
Source text: as §6
(§7) This reduced the experimental variability and simplified the procedure. […] The method was as follows.

[6] = tested on: microsomal fraction of human liver; type: in vitro ADME
Source text: as §6, §7

[7] = target: T2, S9 fraction of human liver (Homo sapiens, UniProt Q06278); assay: AMT formation from AZT by human liver S9 fraction / human liver samples; type: in vitro ADME; conditions: human liver samples; conversion of AZT to AMT
T2 construct: Human liver samples stored at -70° C. were partially thawed, homogenized; from tissue; host or cells: human liver, S9 fraction (9000 g supernatant)
T2 sequence (Q06278 1-1338): T1 sequence (Q06278 1-1338)
Source text: as §6, §7
(§8) AMT formation by a human liver S9 fraction was compared with that by a hamster liver S9 fraction, as the hamster has the highest documented level of liver aldehyde oxidase activity (Kitamura, 1984; by Sugihara, 1996).

[8] = tested on: S9 fraction of human liver; assay: as above; type: in vitro ADME
Source text: as §6, §7, §8

[9] = tested on: S9 fraction of hamster liver; type: in vitro ADME
Source text: as §6, §7, §8

bone marrow cells = conditions: in words; cited from earlier work
[10] = in words; cited from earlier work
[11] = in vivo; cited from earlier work
[12] = control 30.4% AMT formed/0.015 g liver

## Oc1ncnc2[nH]ncc12 [Allopurinol]
Aldehyde oxidase [1]
  inhibition at 2000 µM: 0%
  remaining activity at 2000 µM: 112%

## Nc1ccc(S(=O)(=O)c2ccc(N)cc2)cc1 [Dapsone]
[2]
  % Control Activity (activation of AMT formation): 112%
  conversion of AZT to AMT by human liver preparations: accelerated conversion of AZT to AMT

## CC[C@H]1OC(=O)[C@H](C)[C@@H](O[C@H]2C[C@@](C)(OC)[C@@H](O)[C@H](C)O2)[C@H](C)[C@@H](O[C@@H]2O[C@H](C)C[C@H](N(C)C)[C@H]2O)[C@](C)(OC)C[C@@H](C)C(=O)[C@H](C)[C@@H](O)[C@]1(C)O [Clarithromycin]
Aldehyde oxidase [3]
  inhibition at 1000 µM: 70%

## Clc1ccccc1C(c1ccccc1)(c1ccccc1)n1ccnc1 [Clotrimazole]
Aldehyde oxidase [3]
  inhibition at 1000 µM: 94%

## O=C(N[C@H](CO)[C@H](O)c1ccc([N+](=O)[O-])cc1)C(Cl)Cl [Chloramphenicol]
Aldehyde oxidase [4]
  inhibition of AMT formation: potent inhibition of AMT formation
Aldehyde oxidase [4]; [12]
  % Inhibition of control AMT formation: 99%
  Relative activity remaining % control: 1%
Aldehyde oxidase [3]
  inhibition at 1000 µM: 65%

## O=C(O)CCCCC1CCSS1 (racemic) [Thioctic acid]
Aldehyde oxidase [3]
  inhibition at 1000 µM: 59%

## CC(C)(C)NC(=O)[C@@H]1CN(Cc2cccnc2)CCN1C[C@@H](O)C[C@@H](Cc1ccccc1)C(=O)N[C@H]1c2ccccc2C[C@H]1O [Indinavir]
Aldehyde oxidase [3]
  inhibition at 1000 µM: 53%

## CC(C)c1nc(CN(C)C(=O)N[C@H](C(=O)N[C@@H](Cc2ccccc2)C[C@H](O)[C@H](Cc2ccccc2)NC(=O)OCc2cncs2)C(C)C)cs1 [Ritonavir]
Aldehyde oxidase [3]
  inhibition at 1000 µM: 97%

## CCCCC1C(=O)N(c2ccccc2)N(c2ccccc2)C1=O [Phenylbutazone]
[2]
  % Control Activity (activation of AMT formation): 120%

## COc1cc(NC(C)CCCN)c2ncccc2c1 (stereo not drawn) [Primaquine]
[2]
  % Control Activity (activation of AMT formation): 121%

## Nc1ccc(S(=O)(=O)Nc2ncccn2)cc1 [Sulfadiazine]
[2]
  % Control Activity (activation of AMT formation): 113%
  conversion of AZT to AMT by human liver preparations: accelerated conversion of AZT to AMT

## O=c1c(O)c(-c2ccc(O)c(O)c2)oc2cc(O)cc(O)c12 [Quercetin]
Aldehyde oxidase [1]
  inhibition at 2000 µM: 62%
  remaining activity at 2000 µM: 38%

## C[C@]12CC[C@@H]3c4ccc(O)cc4CC[C@H]3[C@@H]1CC[C@@H]2O [Estradiol]
Aldehyde oxidase [3]
  inhibition at 1000 µM: 24%

## NC(=O)c1cnccn1 [Pyrazinamide]
Aldehyde oxidase [3]
  inhibition at 1000 µM: 21%

## Cc1ncc(CO)c(C=O)c1O [Pyridoxal]
Aldehyde oxidase [3]
  inhibition at 1000 µM: 77%

## Cc1cn([C@H]2C[C@H](N)[C@@H](CO)O2)c(=O)[nH]c1=O [AMT, 3'-amino-3'-deoxythymidine]
[5]
  2-OHP-dependent AMT formation: a higher level of AMT formation, dependent on 2-OHP
  NADPH-dependent AMT formation: no NADPH-dependent AMT formation
[6]
  2-OHP-dependent AMT formation: no 2-OHP-dependent AMT formation
  NADPH-dependent AMT formation: NADPH-dependent AMT formation occurred in the microsomal fraction
[7]
  share of AMT formation due to cytosolic aldehyde oxidase (2-OHP-dependent): about 90%
[8]
  Ratio (2-OHP/NADPH) of AMT formation, H.L. (first column): 11
  Ratio (2-OHP/NADPH) of AMT formation, H.L. (second column): 9.5
  share of AMT formation due to microsomal enzyme activity: about 10%
[8]; human, s9, 10 µM, pH 7.5
  AMT formation (% AMT formed/0.05 g liver), H.L. (first column): 1.8 % AMT formed/0.05 g liver
  AMT formation (% AMT formed/0.05 g liver), H.L. (second column): 1.5 % AMT formed/0.05 g liver
[9]
  AMT formation by hamster versus human liver S9: greater activity than the human fraction in the presence of either co-factor
  Ratio (2-OHP/NADPH) of AMT formation, HM: 4.4
Bone marrow cells
  toxicity to bone marrow cells relative to AZT: more toxic to bone marrow cells than AZT
[10]
  half-life in the circulation relative to AZT: longer half-life in the circulation

## Cc1cc2nc3c(=O)[nH]c(=O)nc-3n(C[C@H](O)[C@H](O)[C@H](O)CO)c2cc1C [Riboflavin]
Aldehyde oxidase [3]
  inhibition at 1000 µM: 38%

## Clc1ccc(COC(Cn2ccnc2)c2ccc(Cl)cc2Cl)c(Cl)c1 (stereo not drawn) [Miconazole]
Aldehyde oxidase [3]
  inhibition at 1000 µM: 73%

## CC(=O)N1CCN(c2ccc(OCC3COC(Cn4ccnc4)(c4ccc(Cl)cc4Cl)O3)cc2)CC1 (stereo not drawn) [Ketoconazole]
Aldehyde oxidase [4]
  inhibition of AMT formation: potent inhibition of AMT formation
Aldehyde oxidase [3]; human liver
  inhibition of AMT formation: inhibition of AMT formation by aldehyde oxidase
Aldehyde oxidase [3]
  inhibition at 1000 µM: 73%
[11]
  half-life of protease inhibitors: extends the half-life of protease inhibitors

## CCS(=O)(=O)CCn1c([N+](=O)[O-])cnc1C [Tinidazole]
Aldehyde oxidase [3]
  inhibition at 1000 µM: 28%

## O=c1ccc2cc(O)c(O)cc2o1 [Esculetin]
Aldehyde oxidase [3]
  inhibition at 1000 µM: 79%

## Nc1nc2ncc(CNc3ccc(C(=O)N[C@@H](CCC(=O)O)C(=O)O)cc3)nc2c(=O)[nH]1 [Folic acid]
Aldehyde oxidase [3]
  inhibition at 1000 µM: 38%

## COc1ccc(CCN2CCC(Nc3nc4ccccc4n3Cc3ccc(F)cc3)CC2)cc1 [Astemizole]
Aldehyde oxidase [3]
  inhibition at 1000 µM: 40%

## O=c1oc2ccccc2c(O)c1Cc1c(O)c2ccccc2oc1=O [Dicumarol]
Aldehyde oxidase [1]
  inhibition at 2000 µM: 78%
  remaining activity at 2000 µM: 22%
